Data published in patent publication US10526337B2, “Heteroaryl derivative or pharmaceutically acceptable salt thereof, preparation method therefor, and pharmaceutical composition for preventing or treating diseases associated with PI3 kinases, containing same as active ingredient” (KOREA RESEARCH INSTITUTE OF CHEMICAL TECHNOLOGY, priority 2015, dated 2020).

Experiments:
Conditions in all cases: ATP=10 uM, sample concentration=100 nM
[1] = target: T1, PI3 Kinase (p110β/p86α) (h) (Homo sapiens, UniProt P42338); assay: Inhibition of phosphatidylinositol 3-kinase beta (PI3K β), pAkt Western blotting in LPA-stimulated PC3 cells; format: cell-based
T1 construct: endogenous in cells; host or cells: PC3
Procedure: (§1) The stimulated cells were transferred in a 1.5 mL tube, followed by centrifugation at 3000 rpm for 1 minute. 100 μL of RIPA buffer (radioimmunoprecipitation assay buffer, 50 mM Tris-HCl, 5 mM EDTA, 150 mM NaCl, 1% NP-40, 1 mM PMSF, pH 8.0; ELPIS, Korea) was added thereto, which was stored in a 4° C. refrigerator for 12 hours. Centrifugation was performed at 4° C. at 14,000 rpm for 20 minutes. The supernatant was transferred into a new 1.5 mL tube. Protein was quantified by BCA (bicinchoninic acid) method and samples were prepared. The composition of the sample was as follows: sample buffer (ELPIS, EBA-1052) 5×, protein 10 μg, and 1× sample buffer to make the total volume 20 μL. The sample was heated at 100° C. for 5 minutes. The evaporated water vapor was condensed in a refrigerator. The liquid stained on the wall was fallen down by centrifugation for a few seconds. The sample proceeded to 10% SDS (Sodium Dodecyl Sulfate) acrylamide gel for separation. The separated protein was transferred onto PVDF (poly-vinyl difluoride) membrane, followed by reaction with pAkt (phospho protein kinase B) antibody (Ser473 or Thr308; Cell signaling, 9271s or 13038s) for 12 hours at 4° C. The membrane was washed with TBST (Tris-Buffered Saline with Tween 20, 10 mM Tris-HCl, pH 7.5, 150 mM NaCl, 0.1% Tween-20) three times for 5 minutes each, to which the secondary antibody (rabbit antibody, Santacruz, sc-2004) was added, followed by reaction at room temperature for 2 hours. The membrane was washed with TBST three times for 10 minutes each, to which ECL (enhanced chemiluminescence, Thermo, NCI34095KR) was sprayed. Bands were investigated by using LAS-3000.
The inhibition of phosphatidylinositol 3 kinase beta (PI3K β) by those compounds prepared in Examples 1˜98 was investigated by the following experiment. The inhibition activity of each compound was measured in the following conditions: ATP=10 uM, and sample concentration=100 nM.
Human prostate cancer cells (PC3 cells) cultured in DMEM (Dulbecco's Modified Eagle Medium, Hyclon, SH30243.01) supplemented with 10% fetal bovine serum (Hyclon, USA) were distributed in a 12-well plate at the density of 1,000,000 cells/well. The cells were stabilized in a 37° C. CO2 for 24 hours and then treated with each compound for 1 and half hours. The cells were treated with 10 ng/mL of LPA (lysophosphatidic acid, 10 μg/mL; R&D, 2150-05) to increase the intracellular activity of PI3K beta. 5 minutes later, the medium was discarded and the cells were washed with cold PBS (phosphate buffered saline, Gibco, 14190-250). PBS was then eliminated completely by using a pipette. Western blotting was performed according to the same manner as described in step 2 of Experimental Example 1 to evaluate the intracellular PI3K beta activity.

[2] = target: T2, PI3 Kinase (p110α/p85α) (h) (Homo sapiens, UniProt P42336); assay: Inhibition of phosphatidylinositol 3-kinase alpha (PI3K α), pAkt Western blotting in EGF-stimulated MDA-MB-453 cells; format: cell-based
T2 construct: endogenous in cells; host or cells: MDA-MB-453
Procedure: The inhibition of phosphatidylinositol 3 kinase alpha (PI3K α) by those compounds prepared in Examples 1˜98 was investigated by the following experiment. The inhibition activity of each compound was measured in the following conditions: ATP=10 uM, and sample concentration=100 nM.
Human breast cancer cells (MDA-MB-453) cultured in DMEM (Dulbecco's Modified Eagle Medium, Hyclon, SH30243.01) supplemented with 10% fetal bovine serum (Hyclon, USA) were distributed in a 12-well plate at the density of 1,000,000 cells/well. The cells were stabilized in a 37° C. CO2 for 24 hours and then treated with each compound for 1 and half hours. The cells were treated with 10 ng/mL of EGF (Epidermal Growth Factor, 10 μg/mL; R&D, 2150-C5) to increase the intracellular activity of PI3K alpha. 5 minutes later, the medium was discarded and the cells were washed with cold PBS (phosphate buffered saline, Gibco, 14190-250). PBS was then eliminated completely by using a pipette. Western blotting was performed as described in step 2 to evaluate the intracellular PI3K alpha activity.
as §1

[3] = target: T3, PI3 Kinase (p110δ/p85α) (h) (Homo sapiens, UniProt O00329); assay: Inhibition of phosphatidylinositol 3-kinase delta (PI3K δ), pAkt Western blotting in IgM-stimulated Raji cells; format: cell-based
T3 construct: endogenous in cells; host or cells: Raji
Summary of the method: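 Raji cells were treated with compound for 1.5 h, then stimulated with 0.25 μg/mL IgM for 30 min to activate PI3Kδ. Lysates were Western blotted for pAkt (Ser473 or Thr308) with ECL detection. Conditions stated: ATP=10 uM, sample concentration=100 nM.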

[4] = target: T4, PI3 Kinase (p120γ) (h) (Homo sapiens, UniProt P48736); assay: Inhibition of phosphatidylinositol 3-kinase gamma (PI3K γ), pAkt Western blotting in C5a-stimulated RAW264.7 macrophages; format: cell-based, mouse
T4 construct: endogenous in cells; host or cells: RAW264.7
Summary of the method: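 Enzyme: PI3Kγ activity measured at ATP=10 uM with compound at 100 nM. Cellular: RAW264.7 macrophages treated with compound 1.5 h, then stimulated with 10 ng/mL C5a for 5 min; lysates (10 μg protein) probed by Western blot for pAkt (Ser473 or Thr308), ECL detection.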

T1 sequence (P42338 whole entry): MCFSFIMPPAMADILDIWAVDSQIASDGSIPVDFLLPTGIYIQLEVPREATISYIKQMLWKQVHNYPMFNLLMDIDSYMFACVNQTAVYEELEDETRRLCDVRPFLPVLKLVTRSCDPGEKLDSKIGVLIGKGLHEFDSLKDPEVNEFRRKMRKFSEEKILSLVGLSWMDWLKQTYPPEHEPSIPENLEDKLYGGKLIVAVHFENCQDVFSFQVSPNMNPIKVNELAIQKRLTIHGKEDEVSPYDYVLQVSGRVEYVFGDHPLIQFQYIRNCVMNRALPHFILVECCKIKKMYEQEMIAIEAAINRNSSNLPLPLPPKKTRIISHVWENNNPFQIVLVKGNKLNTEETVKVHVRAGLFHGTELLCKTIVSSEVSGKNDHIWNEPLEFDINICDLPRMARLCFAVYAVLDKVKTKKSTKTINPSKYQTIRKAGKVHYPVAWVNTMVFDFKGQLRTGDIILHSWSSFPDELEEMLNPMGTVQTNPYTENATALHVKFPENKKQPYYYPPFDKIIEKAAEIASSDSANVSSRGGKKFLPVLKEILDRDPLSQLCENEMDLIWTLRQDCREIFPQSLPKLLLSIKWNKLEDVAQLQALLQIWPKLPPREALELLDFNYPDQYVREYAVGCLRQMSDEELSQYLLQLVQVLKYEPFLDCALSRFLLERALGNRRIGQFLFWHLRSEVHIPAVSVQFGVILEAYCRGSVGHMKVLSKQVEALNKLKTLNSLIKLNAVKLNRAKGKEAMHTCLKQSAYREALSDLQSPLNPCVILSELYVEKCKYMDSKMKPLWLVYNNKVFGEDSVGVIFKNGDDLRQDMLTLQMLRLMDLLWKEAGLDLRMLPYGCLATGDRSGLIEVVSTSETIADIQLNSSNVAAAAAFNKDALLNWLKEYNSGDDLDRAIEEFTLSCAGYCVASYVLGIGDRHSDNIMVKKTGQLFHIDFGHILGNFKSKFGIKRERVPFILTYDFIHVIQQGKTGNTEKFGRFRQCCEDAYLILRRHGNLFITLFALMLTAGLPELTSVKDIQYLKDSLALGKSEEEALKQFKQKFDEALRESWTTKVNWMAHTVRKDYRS
T1 sequence (P27986 whole entry partner): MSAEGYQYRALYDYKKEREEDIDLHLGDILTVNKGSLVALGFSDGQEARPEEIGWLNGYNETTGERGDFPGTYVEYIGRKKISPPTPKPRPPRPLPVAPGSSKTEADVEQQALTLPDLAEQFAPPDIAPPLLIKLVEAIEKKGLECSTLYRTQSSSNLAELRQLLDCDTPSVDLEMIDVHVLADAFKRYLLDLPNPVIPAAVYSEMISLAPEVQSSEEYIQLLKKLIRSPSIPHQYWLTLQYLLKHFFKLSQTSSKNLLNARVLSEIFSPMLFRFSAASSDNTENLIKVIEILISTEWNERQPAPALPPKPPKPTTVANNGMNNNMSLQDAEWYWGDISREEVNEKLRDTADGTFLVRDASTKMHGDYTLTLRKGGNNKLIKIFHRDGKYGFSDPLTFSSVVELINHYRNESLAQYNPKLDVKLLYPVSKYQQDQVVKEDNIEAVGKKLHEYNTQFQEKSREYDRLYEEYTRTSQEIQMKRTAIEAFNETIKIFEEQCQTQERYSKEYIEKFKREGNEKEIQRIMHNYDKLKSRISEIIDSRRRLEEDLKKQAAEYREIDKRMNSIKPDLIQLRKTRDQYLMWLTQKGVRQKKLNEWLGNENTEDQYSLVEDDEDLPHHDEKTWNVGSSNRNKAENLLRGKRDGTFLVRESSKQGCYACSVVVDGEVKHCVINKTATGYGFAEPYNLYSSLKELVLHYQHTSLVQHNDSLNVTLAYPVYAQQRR
T3 sequence (O00329 whole entry): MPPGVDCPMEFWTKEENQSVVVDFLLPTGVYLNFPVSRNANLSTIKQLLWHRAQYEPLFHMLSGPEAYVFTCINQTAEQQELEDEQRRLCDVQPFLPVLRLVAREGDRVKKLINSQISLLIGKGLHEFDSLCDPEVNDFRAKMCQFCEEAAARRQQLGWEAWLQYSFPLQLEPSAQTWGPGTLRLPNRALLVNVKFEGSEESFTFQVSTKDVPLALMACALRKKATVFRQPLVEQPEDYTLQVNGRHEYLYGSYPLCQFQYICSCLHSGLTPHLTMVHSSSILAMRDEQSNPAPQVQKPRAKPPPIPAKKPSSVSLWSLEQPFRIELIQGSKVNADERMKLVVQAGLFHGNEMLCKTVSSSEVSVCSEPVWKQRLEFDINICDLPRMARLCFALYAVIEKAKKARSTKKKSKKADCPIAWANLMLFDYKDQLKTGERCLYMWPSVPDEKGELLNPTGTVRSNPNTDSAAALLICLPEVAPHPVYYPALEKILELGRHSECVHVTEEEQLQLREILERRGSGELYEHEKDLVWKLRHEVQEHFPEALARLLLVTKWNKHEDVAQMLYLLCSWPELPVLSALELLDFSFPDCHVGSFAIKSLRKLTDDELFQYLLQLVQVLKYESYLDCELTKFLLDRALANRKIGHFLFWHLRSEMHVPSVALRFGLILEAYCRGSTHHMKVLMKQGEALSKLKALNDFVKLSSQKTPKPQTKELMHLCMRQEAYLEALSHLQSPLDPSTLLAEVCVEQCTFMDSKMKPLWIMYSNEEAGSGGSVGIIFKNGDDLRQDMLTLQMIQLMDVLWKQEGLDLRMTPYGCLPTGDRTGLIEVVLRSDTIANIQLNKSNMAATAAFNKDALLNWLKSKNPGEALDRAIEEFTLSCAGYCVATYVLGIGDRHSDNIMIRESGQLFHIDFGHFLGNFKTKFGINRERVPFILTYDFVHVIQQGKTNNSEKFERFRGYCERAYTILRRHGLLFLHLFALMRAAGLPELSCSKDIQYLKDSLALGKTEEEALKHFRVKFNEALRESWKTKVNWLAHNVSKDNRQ
T3 sequence (P27986 whole entry partner): as the sequence (P27986 whole entry partner) above
T2 sequence (P42336 whole entry): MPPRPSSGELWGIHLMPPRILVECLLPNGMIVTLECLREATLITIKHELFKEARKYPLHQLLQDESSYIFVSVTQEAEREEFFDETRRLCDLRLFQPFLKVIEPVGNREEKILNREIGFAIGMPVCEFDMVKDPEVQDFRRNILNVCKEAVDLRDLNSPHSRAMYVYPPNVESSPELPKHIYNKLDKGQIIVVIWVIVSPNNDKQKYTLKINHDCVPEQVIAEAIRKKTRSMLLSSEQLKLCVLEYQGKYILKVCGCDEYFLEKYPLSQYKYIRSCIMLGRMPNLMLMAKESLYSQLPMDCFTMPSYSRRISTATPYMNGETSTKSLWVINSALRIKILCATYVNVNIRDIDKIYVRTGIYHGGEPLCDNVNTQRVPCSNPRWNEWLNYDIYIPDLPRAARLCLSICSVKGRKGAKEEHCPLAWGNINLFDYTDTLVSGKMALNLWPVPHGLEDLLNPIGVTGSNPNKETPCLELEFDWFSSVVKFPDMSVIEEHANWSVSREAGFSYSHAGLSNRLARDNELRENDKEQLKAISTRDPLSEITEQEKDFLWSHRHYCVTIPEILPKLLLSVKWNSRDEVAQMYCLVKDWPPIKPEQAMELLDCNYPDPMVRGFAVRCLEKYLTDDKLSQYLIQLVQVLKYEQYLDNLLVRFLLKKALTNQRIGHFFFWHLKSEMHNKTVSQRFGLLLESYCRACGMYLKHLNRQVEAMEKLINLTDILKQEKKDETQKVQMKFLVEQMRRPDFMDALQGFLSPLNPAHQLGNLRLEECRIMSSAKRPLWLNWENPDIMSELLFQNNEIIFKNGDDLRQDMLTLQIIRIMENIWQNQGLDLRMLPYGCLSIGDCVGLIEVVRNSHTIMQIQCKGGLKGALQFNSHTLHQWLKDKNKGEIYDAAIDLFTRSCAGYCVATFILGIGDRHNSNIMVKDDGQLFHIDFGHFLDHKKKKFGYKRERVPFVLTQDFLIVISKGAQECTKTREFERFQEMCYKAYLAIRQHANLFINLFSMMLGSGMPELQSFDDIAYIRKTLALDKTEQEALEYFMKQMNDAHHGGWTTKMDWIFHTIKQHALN
T2 sequence (P27986 2-724 partner limits assumed): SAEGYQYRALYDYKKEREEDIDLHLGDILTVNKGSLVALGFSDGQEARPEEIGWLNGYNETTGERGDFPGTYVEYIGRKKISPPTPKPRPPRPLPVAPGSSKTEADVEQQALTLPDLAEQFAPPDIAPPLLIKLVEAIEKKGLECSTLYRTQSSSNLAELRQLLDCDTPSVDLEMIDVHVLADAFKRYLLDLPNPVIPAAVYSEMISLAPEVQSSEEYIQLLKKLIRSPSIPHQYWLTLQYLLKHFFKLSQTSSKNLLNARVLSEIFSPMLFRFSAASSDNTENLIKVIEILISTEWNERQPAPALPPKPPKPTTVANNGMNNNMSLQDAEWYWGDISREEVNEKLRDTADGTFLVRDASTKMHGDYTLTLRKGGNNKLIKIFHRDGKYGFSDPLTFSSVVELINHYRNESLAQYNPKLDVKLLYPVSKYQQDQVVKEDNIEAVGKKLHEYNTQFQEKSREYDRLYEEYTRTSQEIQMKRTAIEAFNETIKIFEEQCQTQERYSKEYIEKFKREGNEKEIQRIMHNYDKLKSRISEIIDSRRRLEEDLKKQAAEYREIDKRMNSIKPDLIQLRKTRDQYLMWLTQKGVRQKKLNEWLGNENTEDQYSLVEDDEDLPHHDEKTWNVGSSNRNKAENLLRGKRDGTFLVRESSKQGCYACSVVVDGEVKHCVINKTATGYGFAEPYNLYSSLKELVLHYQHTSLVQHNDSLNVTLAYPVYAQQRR

| Compound | IC50 [1] [nM] | IC50 [2] [nM] | IC50 [3] [nM] | IC50 [4] [nM] |
| --- | --- | --- | --- | --- |
| C[C@H](Nc1ncnc2c1C(=O)N(C)CN2)c1c(Cl)c2cccc(Cl)c2c(=O)n1-c1ccccc1 [Example 40, (S)-5-((1-(4,8-dichloro-1-oxo-2-phenyl-1,2-dihydroisoquinoline-3-yl)ethyl)amino)-3-methyl-2,3-dihydropyrimido[4,5-d]pyrimidine-4(1H)-one] | > 500 | > 500 | < 10 | 10 to 500 |
| CCN1CNc2ncnc(N[C@@H](C)c3cc4cccc(Cl)c4c(=O)n3-c3ccccc3)c2C1=O [Example 60, (S)-5-(1-(8-chloro-1-oxo-2-phenyl-1,2-dihydroisoquinoline-3-yl)ethylamino)-3-ethyl-2,3-dihydropyrimido[4,5-d]pyrimidine-4(1H)-one] | > 500 | > 500 | 10 to 500 | 10 to 500 |
| CCCN1CNc2ncnc(N[C@@H](C)c3cc4cccc(Cl)c4c(=O)n3-c3ccccc3)c2C1=O [Example 61, (S)-5-(1-(8-chloro-1-oxo-2-phenyl-1,2-dihydroisoquinoline-3-yl)ethylamino)-3-propyl-2,3-dihydropyrimido[4,5-d]pyrimidine-4(1H)-one] | > 500 | > 500 | > 500 | > 500 |
| C[C@H](Nc1ncnc2c1C(=O)N(C1CC1)CN2)c1cc2cccc(Cl)c2c(=O)n1-c1ccccc1 [Example 62, (S)-5-(1-(8-chloro-1-oxo-2-phenyl-1,2-dihydroisoquinoline-3-yl)ethylamino)-3-cyclopropyl-2,3-dihydropyrimido[4,5-d]pyrimidine-4(1H)-one] | > 500 | > 500 | > 500 | > 500 |
| C[C@H](Nc1ncnc2c1C(=O)N(C1CCCC1)CN2)c1cc2cccc(Cl)c2c(=O)n1-c1ccccc1 [Example 63, (S)-5-(1-(8-chloro-1-oxo-2-phenyl-1,2-dihydroisoquinoline-3-yl)ethylamino)-3-cyclopentyl-2,3-dihydropyrimido[4,5-d]pyrimidine-4(1H)-one] | > 500 | > 500 | > 500 | > 500 |
| O=c1nc[nH]c2ncnc(N3CCC[C@H]3c3nn4ccc(Cl)c4c(=O)n3-c3ccccc3)c12 [Example 79, (S)-5-(2-(5-chloro-4-oxo-3-phenyl-3,4-dihydropyrrolo[2,1-f][1,2,4]triazine-2-yl)pyrrolidine-1-yl)pyrimido[4,5-d]pyrimidine-4(1H)-one] | > 500 | > 500 | > 500 | > 500 |
| C[C@H](Nc1nc(N)nc2[nH]cnc(=O)c12)c1cc2cccc(Cl)c2c(=O)n1-c1ccccc1 [Example 85, (S)-7-amino-5-(1-(8-chloro-1-oxo-2-phenyl-1,2-dihydroisoquinoline-3-yl)ethylamino)pyrimido[4,5-d]pyrimidine-4(1H)-one] | > 500 | > 500 | 10 to 500 | 10 to 500 |
| C[C@H](Nc1nc(N)nc2[nH]cnc(=O)c12)c1cc2ccccc2nc1-c1ccccc1 [Example 88, (S)-7-amino-5-((1-(2-phenylquinoline-3-yl)ethyl)amino)pyrimido[4,5-d]pyrimidine-4(1H)-one] | 10 to 500 | 10 to 500 | 10 to 500 | 10 to 500 |
| Nc1nc(N2CCC[C@H]2c2nn3ccc(Cl)c3c(=O)n2-c2ccccc2)c2c(=O)nc[nH]c2n1 [Example 95, (S)-7-amino-5-(2-(5-chloro-4-oxo-3-phenyl-3,4-dihydropyrrolo[2,1-f][1,2,4]triazine-2-yl)pyrrolidine-1-yl)pyrimido[4,5-d]pyrimidine-4(1H)-one] | > 500 | > 500 | 10 to 500 | 10 to 500 |
| C[C@H](Nc1ncnc2c1C(=O)CCN2)c1c(Cl)c2cccc(Cl)c2c(=O)n1-c1ccccc1 [Example 98, (S)-4-((1-(4,8-dichloro-1-oxo-2-phenyl-1,2-dihydroisoquinoline-3-yl)ethyl)amino)-7,8-dihydropyrido[2,3-d]pyrimidine-5(6H)-one] | 10 to 500 | > 500 | < 10 | 10 to 500 |
